Key:
[1] = target: T1, dopamine D4 receptors in cloned human dopamine receptor subtype 4.2 membranes (Homo sapiens, UniProt P21917, DEL271-302); experiment: 3H-YM-09151-2 binding (affinity for dopamine D4 receptors); conditions: 3H-YM-09151-2, cloned human D4.2 membranes; for IC50: * means that the test result is preliminary, read-out: D4-bind. IC50
T1 sequence (P21917 with tags, fused parts or gaps DEL271-302): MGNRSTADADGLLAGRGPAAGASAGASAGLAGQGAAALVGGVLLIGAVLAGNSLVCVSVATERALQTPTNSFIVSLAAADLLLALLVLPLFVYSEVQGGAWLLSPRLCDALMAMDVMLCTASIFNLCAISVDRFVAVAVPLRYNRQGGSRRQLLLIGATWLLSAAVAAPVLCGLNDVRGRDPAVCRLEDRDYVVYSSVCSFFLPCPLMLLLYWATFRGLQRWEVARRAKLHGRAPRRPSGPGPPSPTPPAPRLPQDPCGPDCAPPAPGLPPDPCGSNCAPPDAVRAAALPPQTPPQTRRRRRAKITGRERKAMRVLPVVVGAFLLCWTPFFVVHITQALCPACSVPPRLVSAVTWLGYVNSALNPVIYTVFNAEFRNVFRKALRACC
Protocol: By this method the inhibition by drugs of the binding of the dopamine D4 antagonist ^3H-YM-09151-2 to dopamine D4 receptors in cloned human dopamine receptor subtype 4.2 membranes is determined in vitro. Accordingly, this is a test for affinity for dopamine D4 receptors. The test is performed using a preparation of cloned dopamine D4 cell membranes CRM-016®, Dupharma A/S, Denmark, in accordance with the product specifications.

| Structure (SMILES) | IC50 [1] | melting point | inhibition at 0.05 µM ([1]; at 50 nM, read-out: D4-bind. % inhibition of binding at 50 nM) |
| --- | --- | --- | --- |
| Clc1ccc2c(C3=CCN(CCC4CCc5ccccc54)CC3)c[nH]c2c1 (centres unmarked) [Compound 8a, 6-Chloro-3-[1-[2-(indan-1-yl)ethyl]-1,2,3,6-tetrahydropyridine-4-yl]-1H-indole] | 3.5 nM | 181 to 183 °C | – |
| CC(=O)N1CC(CCN2CC=C(c3c[nH]c4cc(Cl)ccc34)CC2)c2ccccc21 (single isomer, unassigned; (-)) [Compound 34b] | 24 nM | 168 to 169 °C | – |
| Fc1ccc2[nH]cc(C3=CCN(CCCCC4CCc5ccccc54)CC3)c2c1 (centres unmarked) [Compound 8d, 5-Fluoro-3-[1-[4-(indan-1-yl)butan-1-yl]-1,2,3,6-tetrahydropyridin-4-yl]-1H-indole] | 20 nM | 172 to 176 °C | – |
| Clc1ccc2c(C3=CCN(CCCC4Cc5ccccc5C4)CC3)c[nH]c2c1 [Compound 11h, 6-Chloro-3-[1-[3-(indan-2-yl)propan-1-yl]-1,2,3,6-tetrahydropyridin-4-yl]-1H-indole] | 24 nM | 176 to 177 °C | – |
| Clc1ccc2c(C3CCN(CC4Cc5ccccc5C4)CC3)c[nH]c2c1Cl [Compound 21d, 6,7-Dichloro-3-[1-(indan-2-ylmethyl)piperidin-4-yl]-1H-indole] | 3.9 nM | 141 to 142 °C | – |
| CC(=O)Nc1cccc2c1CCC2CN1CC=C(c2c[nH]c3cc(Cl)ccc23)CC1 (centres unmarked) [Compound 6c] | 12 nM | 189 to 190 °C | – |
| Clc1ccc2c(C3=CCN(CCCCC4Cc5ccccc5C4)CC3)c[nH]c2c1 [Compound 11i, 6-Chloro-3-[1-[4-(indan-2-yl)butan-1-yl]-1,2,3,6-tetrahydropyridin-4-yl]-1H-indole] | – | 211 to 214 °C | 37% |
| C1=C(c2c[nH]c3ccccc23)CCN(CC2Cc3ccccc3C2)C1 [Compound 11b, 3-[1-(Indan-2-yl)methyl-1,2,3,6-tetrahydropyridin-4-yl]-1H-indole] | 3 nM | 156 to 157 °C | – |
| Fc1ccc2[nH]cc(C3=CCN(CCC4CCc5ccccc54)CC3)c2c1 (centres unmarked) [Compound 8b, 5-Fluoro-3-[1-[2-(indan-1-yl)ethyl]-1,2,3,6-tetrahydropyridin-4-yl]-1H-indole] | 2.8 nM | 172 to 176 °C | – |
| Clc1ccc2c(C3CCN(CCC4Cc5ccccc5C4)CC3)c[nH]c2c1 [Compound 21f, 6-Chloro-3-[1-[2-(indan-2-yl)ethyl]piperidin-4-yl]-1H-indole] | 3.2 nM | 155 to 156 °C | – |
